Our source for the GI50 and TGI values is PubChem BioAssay (NCI).

“And” between values parts separate entries of the source, which are not always exact repeats. Equal values may be shown once.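 Tested at 5 concentrations; 48 h exposure; 96-well plates; endpoints linearly interpolated, else capped at highest concentration. Abbreviation: GI50, concentration required for 50% inhibition of growth. TGI: concentration producing complete growth inhibition.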

Holding throughout (experiment): growth of human tumour cells (NCI), 48 h
Assay [1] deals with SK-OV-3 ovarian.
The test system of assay [2] is U251 CNS.
For assay [3], the system named is TK-10 renal.
The subject of assay [4] is UACC-257 melanoma.
In assay [5] the test system is SW-620 colon.
Assay [6] has as its system MALME-3M melanoma.
Assay [7] concerns COLO 205 colon.
In assay [8] the test system is T-47D breast.
Assay [9] relates to HOP-92 NSCLC.
For assay [10], the system named is ACHN renal.

Take `COc1ccc(-c2ncnc3c2ncn3CC#CCCl)cc1`: the GI50 in assay [1] was 10.5 µM; in [2], 1.96 µM; in [3] it was 7.29 µM; in assay [4], 5.74 µM; in [5], 2.99 µM; in [6], 2.58 µM. The GI50 is 3.51 µM in [7], 2.89 µM in assay [8], 2.75 µM in assay [9] and 3.62 µM in assay [10]. The TGI in assay [1] is 22.7 µM; in [2], 4.85 µM; in assay [3] it was 24 µM; in assay [4], 21.8 µM; in [5], 12.4 µM; in [6], 16 µM. For the same molecule, the TGI in [7] came out at 13.7 µM; in assay [8] it was 12.7 µM; in [9], 11.8 µM; in assay [10], 14.8 µM.
`O=C(O)Cc1cccc2c(=O)cc(-c3ccccc3)oc12`: the GI50 in assay [1] was over 813 µM; in [2] it was 360 µM; in assay [3], 990 µM; in assay [4] it was 614 µM; in assay [5] it was 313 µM; in [6] it was 725 µM. The GI50 in assay [7] is 636 µM; in assay [8], 690 µM; in [9] it was 43.9 µM and 318 µM; in assay [10] it was 813 µM. The TGI in [1] was 250 µM and > 1000 µM; in assay [2] it was over 1000 µM; in [3] it was over 1000 µM; in assay [4], over 1000 µM; in assay [5] it was over 1000 µM; in assay [6] it was over 1000 µM. The TGI was over 1000 µM in [7]; over 1000 µM in [8]; 178 µM and > 948 µM in assay [9]; over 1000 µM in assay [10].
Take `O=C1c2c(c(=O)[nH]c3ccccc23)[C@H](c2ccccc2)[C@@H]2CCCN12`: the GI50 was 9.56 µM in assay [1]; 3.37 µM in assay [2]; 20.5 µM in assay [3]; 5.13 µM in [4]; 3.38 µM in assay [5]; 6.87 µM in [6]. The GI50 was 14.6 µM in assay [7], 3.46 µM in assay [8], 2.94 µM in assay [9] and 2.64 µM in assay [10]. Further, the TGI was 80 µM in [1]; 18.3 µM in assay [2]; over 100 µM in assay [3]; 53 µM in assay [4]; over 100 µM in assay [5]; 43.8 µM in assay [6]. For the same molecule, the TGI stood at 44.5 µM in assay [7], 9.2 µM in assay [8], 15.7 µM in assay [9] and 14.9 µM in assay [10].
With `NCCCCC(NC(=O)C(N)CCCN=C(N)N)C(=O)NC(CCCCN)C(=O)NC(CCCN=C(N)N)C(=O)NC(CCCN=C(N)N)C(=O)NC(CCC(N)=O)C(=O)NC(CCCN=C(N)N)C(=O)NC(CCCN=C(N)N)C(=O)NC(CCCN=C(N)N)C(=O)NCC(=O)NCC(=O)O` (stereo not drawn), the GI50 in [1], in assay [2], in assay [3], in assay [5], in [6] and in assay [7] was over 50 µM each time. Moreover, the GI50 in assay [8], in [9] and in assay [10] was over 50 µM each time. Moreover, the TGI in assay [1], in [2], in assay [3], in assay [5], in assay [6] and in [7] was over 50 µM in each case. Besides, the TGI in assay [8], in assay [9] and in assay [10] was over 50 µM throughout.
For the molecule `COc1cc2nc(Nc3cccc(Cl)c3)nc(N)c2cc1OC`, the GI50 in [1] was 18.1 µM; in assay [2], 3.08 µM; in assay [3], 14.2 µM; in assay [4], 2.11 µM; in assay [5], 2.68 µM; in assay [6], 2.47 µM. Also, the GI50 in assay [7] was 1.68 µM; in assay [8], 5.13 µM; in assay [9] it was 2.59 µM; in [10], 11.4 µM. For the same molecule, the TGI in assay [1] came to 32.7 µM; in [2], 9.96 µM; in assay [3], 37.8 µM; in assay [4] it was 4.48 µM; in assay [5], 7.15 µM; in assay [6] it was 6.62 µM. Further, the TGI in assay [7] is 3.39 µM; in assay [8], 24 µM; in [9] it was 14.6 µM; in assay [10], 23.8 µM.
In the case of `CCSC[C@@H]1C[C@](O)(c2ccc(Cl)cc2)[C@@H](c2ccc(Cl)cc2)O1`, the GI50 in assay [1] is 22.4 µM; in assay [2], 18.3 µM; in assay [3], 17.8 µM; in [4] it was 15.1 µM; in assay [5], 14.4 µM; in assay [6] it was 15.2 µM. For the same molecule, the GI50 was 14.4 µM in assay [7], 14.8 µM in assay [8], 20.9 µM in [9] and 19.6 µM in assay [10]. Besides, the TGI in [1] came to 60.2 µM; in [2], 36.2 µM; in assay [3] it was 36.3 µM; in [4], 30.1 µM; in assay [5] it was 33.6 µM; in assay [6] it was 29.8 µM. Further, the TGI is 28.7 µM in assay [7], 38.6 µM in assay [8], 36.9 µM in assay [9] and 36.6 µM in assay [10].
As to `C=CCC1(C(=O)OC)CCC/C(=N\O)C1` (stereo not drawn), the TGI in assay [1], in assay [2], in [3], in assay [4], in assay [5] and in assay [6] was over 10 µM in each case. Further, the TGI in assay [7], in assay [8], in assay [9] and in assay [10] was over 10 µM throughout.
Take `CCC1=C(c2ccc(OC)cc2)C(C)(C)Oc2c1ccc(O)c2CN1CCCC1`: the GI50 in assay [1] is 8.23 µM; in assay [2], 1.48 µM; in assay [3], 5.26 µM; in assay [4] it was 1.78 µM; in [5], 1.71 µM; in assay [6], 2.05 µM. The GI50 in assay [7] was 14.9 µM; in assay [8] it was 1.45 µM; in assay [9], 1.23 µM; in [10], 3.6 µM. Also, the TGI in [1] is over 100 µM; in assay [2], 3.04 µM; in [3] it was 31.3 µM; in assay [4], 3.85 µM; in assay [5], 3.3 µM; in assay [6], 5.36 µM. The TGI in assay [7] was 87.4 µM; in [8], 4.64 µM; in [9] it was 3.98 µM; in assay [10], over 100 µM.
